The test system of the test is genotype 1b (Con-1) HCV replicon. Briefly: HCV replicon luciferase assay, genotype 1b (Con-1). It is filed as cell-based. The settings on record: genotype 1b HCV replicon, Huh-7 cells, Renilla luciferase, 3 days. Here is the method:
The cell lines used to evaluate compounds consist of a human hepatocyte derived cell line (Huh-7) that constitutively expresses a genotype 1b (Con-1) HCV replicon or a genotype 1b (Con-1) HCV replicon with an asparagine replacing the cysteine at amino acid 316, or a genotype 2a (JFH-1) replicon, containing a Renilla luciferase reporter gene. These cells were maintained in Dulbecco's modified Eagle medium (DMEM) containing 10% FBS, 100 U/mL penicillin/streptomycin and 1.0 mg/mL G418.
To evaluate compound efficacy, titrated compounds were transferred to sterile 384-well tissue culture treated plates, and the plates were seeded with HCV replicon cells (50 μL at a density of 2.4×10^3 cells/well) in DMEM containing 4% FBS (final DMSO concentration at 0.5%). After 3 days incubation at 37° C., cells were analyzed for Renilla Luciferase activity using the EnduRen substrate (Promega cat #E6485) according to the manufacturer's directions. Briefly, the EnduRen substrate was diluted in DMEM and then added to the plates to a final concentration of 7.5 μM. The plates were incubated for at least 1 h at 37° C. then read on a Viewlux Imager (PerkinElmer) using a luminescence program. The 50% effective concentration (EC50) was calculated using the four-parameter logistic formula noted above.

Setting [1] is: Hepatitis C virus, Huh-7, 72 h, read-out: EC50 (uM) 1b.
Setting [2] is: Hepatitis C virus, Huh-7, 72 h, read-out: EC50 1b (class).

Read-outs that look alike come from different tables or passages of the source.

Turning to `CNC(=O)c1c(-c2ccc(F)cc2)oc2nc(CCC(F)(F)F)c(-c3cccc(C(=O)NC(C)(C#N)C4CC4)c3)cc12` (stereo not drawn) [Compound 11006], the EC50 under setting [1] was 0.0022 µM and the EC50 (read-out: EC50 1b (class)) was less than 0.1 µM.
Regarding `CNC(=O)c1c(-c2ccc(F)cc2)oc2nc(NCC(F)(F)F)c(-c3ccc(OC)c(C(=O)NC(C)(C#N)C(C)C)c3)cc12` (stereo not drawn) [Compound K5004], the EC50 under setting [2] was less than 0.1 µM and the concentration giving a half-maximal response (EC50) under setting [1] is 0.0028 µM.
As for `CNC(=O)c1c(-c2ccc(F)cc2)oc2nc(NCC(F)(F)F)c(-c3cccc(C(=O)NC(C)C#N)c3)cc12` (stereo not drawn) [Compound 20002], the concentration for a half-maximal effect (EC50) under setting [2] is less than 0.1 µM.
Regarding `CNC(=O)c1c(-c2ccc(F)cc2)oc2nc(CCC(F)(F)F)c(-c3ccc(F)c(C(=O)NC(C)C#N)c3)cc12` (stereo not drawn) [Compound 13003], the EC50 under setting [2] was less than 0.1 µM.
For `CNC(=O)c1c(-c2ccc(F)cc2)oc2nc(NCC(F)(F)F)c(-c3cccc(C(=O)NC(C)(C)C#N)c3)cc12` [Compound 20001], the concentration for a half-maximal effect (EC50) under setting [2] was less than 0.1 µM.
For `CNC(=O)c1c(-c2ccc(F)cc2)oc2nc(CCC(F)(F)F)c(-c3ccc(F)c(C(=O)NC(C)C#N)c3)cc12` (stereo not drawn) [Compound 13005], the half-maximal effective concentration (EC50) (read-out: EC50 1b (class)) was less than 0.1 µM.
`CNC(=O)c1c(-c2ccc(F)cc2)oc2nc(CCC(F)(F)F)c(-c3cc(F)cc(C(=O)NC(C)(C)C#N)c3)cc12` [Compound 14001]: the 50% effective concentration (EC50) by setting is: under setting [2], less than 0.1 µM; under setting [1], 0.0022 µM.
For the molecule `CNC(=O)c1c(-c2ccc(F)cc2)oc2nc(NCC(F)(F)F)c(-c3ccc(F)c(C(=O)NC(C)(C)C#N)c3)cc12` [Compound K2001], under setting [2], the EC50 was less than 0.1 µM.
Take `CNC(=O)c1c(-c2ccc(F)cc2)oc2nc(NCC(F)(F)F)c(-c3ccc(F)c(C(=O)NC(C)C#N)c3)cc12` (stereo not drawn) [Compound 22001]: the EC50 runs as follows: under setting [2], less than 0.1 µM; under setting [1], 0.0055 µM.
With `CNC(=O)c1c(-c2ccc(F)cc2)oc2nc(CCC(F)(F)F)c(-c3cccc(C(=O)NC4(C#N)CCC4)c3)cc12` [Compound 11002], the EC50 under setting [2] was less than 0.1 µM.
Same read-out and setting: the figure for `CNC(=O)c1c(-c2ccc(F)cc2)oc2nc(Cl)c(-c3ccc(OC)c(C(=O)NC4(C#N)CCCC4)c3)cc12` [Compound 10003] is less than 0.1 µM.
Consider `[2H]C([2H])([2H])Oc1ncc(-c2cc3c(C(=O)NC)c(-c4ccc(F)cc4)oc3nc2CCC(F)(F)F)cc1C(=O)NC(C)(C#N)C1CC1` (stereo not drawn) [Compound 18001], for which the EC50 was less than 0.1 µM under setting [2] and 0.0037 µM under setting [1].
Turning to `CNC(=O)c1c(-c2ccc(F)cc2)oc2nc(NCC(F)(F)F)c(-c3cc(F)cc(C(=O)NC(C)(C#N)C4CC4)c3)cc12` (stereo not drawn) [Compound 23001], the 50% effective concentration (EC50) under setting [2] is less than 0.1 µM.
The same measure, in the same setting: the figure for `CNC(=O)c1c(-c2ccc(F)cc2)oc2nc(CCC(F)(F)F)c(-c3ccc(F)c(C(=O)NC(C)(C)C#N)c3)cc12` [Compound K1003] is less than 0.1 µM; for `CNC(=O)c1c(-c2ccc(F)cc2)oc2nc(CCC(F)(F)F)c(-c3ccc(OC)c(C(=O)NC4(C#N)CCCC4)c3)cc12` [Compound 12003] it is less than 0.1 µM.
On to `CNC(=O)c1c(-c2ccc(F)cc2)oc2nc(CCC(F)(F)F)c(-c3ccc(F)c(C(=O)NC4(C#N)CC4)c3)cc12` [Compound K1001], for which the EC50 reads like this: under setting [2], less than 0.1 µM; under setting [1], 0.0061 µM.
For `CNC(=O)c1c(-c2ccc(F)cc2)oc2nc(CCC(F)(F)F)c(-c3ccc(OC)c(C(=O)NC(C)(C#N)C(C)C)c3)cc12` (stereo not drawn) [Compound 12004], the EC50 was less than 0.1 µM under setting [2] and 0.0033 µM under setting [1].
`CNC(=O)c1c(-c2ccc(F)cc2)oc2nc(CCC(F)(F)F)c(-c3ccc(F)c(C(=O)NC(C)(C#N)C(C)C)c3)cc12` (stereo not drawn) [Compound 13002]: the concentration for a half-maximal effect (EC50) is, setting by setting: under setting [2], less than 0.1 µM; under setting [1], 0.0024 µM.
Taken in the same sequence, the figures for `CNC(=O)c1c(-c2ccc(F)cc2)oc2nc(NCC(F)(F)C(F)(F)F)c(-c3cccc(C(=O)NC(C)(C#N)C(C)C)c3)cc12` (stereo not drawn) [Compound 30002] were less than 0.1 µM and 0.0394 µM.
As for `CC[C@H](C)c1nc2oc(-c3ccc(F)cc3)c(C(=O)NC)c2cc1-c1cccc(C(=O)NC(C)(C)C#N)c1` [Compound K11001], the 50% effective concentration (EC50) is less than 0.1 µM under setting [2] and 0.0133 µM under setting [1].

Source of the values: patent publication US9249152B2, “Cyano containing azabenzofuran compounds for the treatment of hepatitis C” (BRISTOL-MYERS SQUIBB COMPANY, priority 2014, dated 2016).
